Experimental data: US11666561B2, “Compounds for use in regulating follicle maturation” (AARHUS UNIVERSITET, priority 2017, dated 2023)
Counter-ions that a name gives are not always drawn.

System: primordial-to-primary follicle transition
Assay: In vitro organ culture of mouse ovaries with compound, H&E histology and counting of primordial, primary and secondary follicles
Details: for effect on primordial-to-primary follicle transition / primordial follicle activation: in vitro cultured mouse ovaries, concentration not given
Experimental: Ovaries obtained from mice were washed twice with culture medium. Antagonists or agonists to be tested were dissolved in suitable solvents and added to the medium. As a control medium comprising solvent without the antagonist or agonist was used. One of the ovaries was cultured in a control medium and another was cultured with the antagonist or agonist. The tested antagonists or agonists and their concentrations are outlined in table 2.
Ovaries were incubated with antagonist at 37° C. and 5% CO2 for 24 and 96 hours, respectively (see table 3).
Cultures ovaries were fixed, embedded in paraffin and sliced microscopy. The sectioned ovaries were stained with hematoxylin and eosin (H&E) to visualize the morphology of the ovary by microscopy.
The number of primordial, primary and secondary follicles was determined, and it was determined whether the antagonist or agonist was capable of regulating folliculogenesis.
C57BL/6j×CBA F1 hybrid mice (Janvier Labs, France) were housed and bred in the animal facilities at Department of Biomedicine, Aarhus University. Animals were housed in a 12:12 h controlled light-dark environment and were provided with food and water ad libitum. 7-day-old female pups were used for the study.
Pups were sacrificed and ovaries were excised. Using a stereomicroscope MZ75 (Leica Microsystems, Germany), excess tissue was removed. During the dissection, ovaries were kept at 37° C. in culture medium: aMEM (Thermo Fisher) supplemented with 10% FBS (Thermo Fisher), 100 mIU/mL of FSH (Sigma-Aldrich), 100 IU/mL penicillin (Thermo Fisher), 100 μg/mL streptomycin (Thermo Fisher) and 1% Insulin-Transferrin-Selenium (Thermo Fisher). Isolated ovaries were transferred into well inserts (PET membrane ThinCert, 0.4 μm-pore size; Greiner bio-one) in 24-well plates (Tissue culture treated, cell culture plates; Costar). 200-300 μL of culture medium was added to the well below the insert and up to two ovaries were placed on the membrane of each insert. The culture medium was supplemented with different concentrations of the tested compounds; bpV(HOpic) (Sigma-Aldrich), Temsirolimus (Sigma-Aldrich), Ketotifen (Sigma-Aldrich), 3PO (Sigma-Aldrich), Dorsomorphin (Sigma-Aldrich), AICAR (Sigma-Aldrich), NCG (Sigma-Aldrich), and Dyphylline (Cayman Chemical). Up to six wells in the 24-well plate were used for inserts. Sterile dH2O was added to the rest of the wells to ensure humidity and reduce evaporation. The ovaries were cultured at 37° C., 5% CO2 for four days. 150 μL of medium was replaced every other day with fresh culture medium.
Ovaries kept in organ culture for four days were fixed for 24 hours in 4% paraformaldehyde solution at 4° C. After fixation, ovaries were dehydrated in ethanol series using 70%, 96% and 99.9% ethanol. Xylene was used as clearing agent before the ovaries were infiltrated in paraffin wax. 5 μm-sections of samples in paraffin were cut using a microtome (Cut 6062, SLEE medical, Germany). Paraffin sections were mounted on glass slides, paraffin was melted at 60° C., and the samples were stained with hematoxylin and eosin (using standard protocols).
The samples were deparaffinized by incubating in xylene for 2×15 min. and subsequently rehydrated in series of ethanol; 3×2 min. in 99.9% ethanol, 2 min. in 96% ethanol, and 2 min. in 70% ethanol. The samples were then rinsed in dH2O, stained in hematoxylin for 40 sec., rinsed in dH2O for 5 min., and stained in eosin for 46 sec. The samples were dehydrated in ethanol: 2×2 min. in 96% ethanol, 2×2 min in 99.9% ethanol, and finally cleared up in xylene for at least 30 min before mounting the samples using Eukitt mounting medium (Sigma-Aldrich) and cover glass.
The number of follicles at each developmental stage was counted using an inverted research microscope (DM14000B, Leica Microsystems, Germany). The follicles of every 3rd to 4th section of each ovary were counted and the distribution of follicles in the different stages in percentage was determined.

[1] = Table 1, effect with a figure cited
[2] = Table 2, effect with a figure cited
[3] = 1.0 μM Trigonellin hydrochloride, 96 hours

With `COc1cc(C(=O)O)ccc1NC(=O)[C@@H]1N[C@@H](CC(C)(C)C)[C@](C#N)(c2ccc(Cl)cc2F)[C@H]1c1cccc(Cl)c1F` [Idasanutlin, 4-{[(3S,4R,5S)-3-(3-Chloro-2-fluorophenyl)-4-(4-chloro-2-fluorophenyl)-4-cyano-5-(2,2-dimethylpropyl)-D-prolyl]amino}-3-methoxybenzoic acid] the Effect (Table 1, marked (ongoing)) was “promotes” and the Effect (Table 2, marked (ongoing)) was “promotes”.

With `CN1CCC(=C2c3ccccc3CC(=O)c3sccc32)CC1` [Ketotifen, 4,9-dihydro-4-(1-methyl-4-piper-idylidende)-10H-benzo(4,5)cyclohepta(1,2,b)thiophen-10-one] the “less primary follicles than control” value (85 nM Ketotifen, 96 hours) was ~44%, the “less secondary follicles than control” value (85 nM Ketotifen, 96 hours) was ~65% and the “more primordial follicles than control” value (85 nM Ketotifen, 96 hours) was “approximately 9%”. For the same compound, the Effect [1] was “inhibits follicle”, the Effect [2] was “inhibits follicle” and the “effect on primordial-to-primary follicle transition / primordial follicle activation” value was “significantly more primordial follicles”.

With `O=C(O)c1cc(N(Cc2ccccc2O)Cc2cc(O)ccc2O)ccc1O` [Lavendustin, 5-amino-((N-2,5-dihydroxybenzyl)-N′-2-hydroxybenzyl)aminosalicylic acid] the Effect (Table 1, marked (ongoing)) was “promotes” and the Effect (Table 2, marked (ongoing)) was “promotes”.

`CC1(O)CC(c2nc(-c3ccc4ccc(-c5ccccc5)nc4c3)c3c(N)nccn23)C1` (stereo not drawn) [Linsitinib, 3-[8-amino-1-(2-phenylquinolin-7-yl)imidazo[1,5-a]pyrazin-3-yl]-1-methylcyclobutan-1-ol] was tested, and the Effect (Table 1, marked (ongoing)) was “promotes” and the Effect (Table 2, marked (ongoing)) was “promotes”.

`Nc1ccn([C@@H]2O[C@H](CO)[C@@H](O)[C@@H]2O)c(=O)n1` [MK-8242, 4-amino-1-[(2R,3S,4S,5R)-3,4-dihydroxy-5-(hydroxymethyl)oxolan-2-yl]pyrimidin-2-one] was tested, and the Effect (Table 1, marked (ongoing)) was “promotes” and the Effect (Table 2, marked (ongoing)) was “promotes”.

With `Cc1nccc2[nH]c(=O)ccc12` [Medorinone, 5-methyl-1H-1,6-naphthyridin-2-one] the Effect (Table 1, marked (ongoing)) was “promotes” and the Effect (Table 2, marked (ongoing)) was “promotes”.

For `CN(C)C(=N)N=C(N)N` [Metformin, N,N-Dimethylimiddicarbonimiddiamid], the Effect (Table 1, marked (ongoing)) was “promotes” and the Effect (Table 2, marked (ongoing)) was “promotes”.

With `NC(=O)N[C@@H](CCC(=O)O)C(=O)O` [NCG, (2S)-2-(carbamoylamino)pentanedioic acid] the “effect on follicle distribution” value (10, 20 and 30 μM NCG, 96 hours) was “has the potential to activate primordial follicle distribution”, the Effect [1] was “promotesfollicle” and the Effect [2] was “promotesfollicle”.

With `C=CC(=O)Nc1cc(Nc2nccc(-c3cn(C)c4ccccc34)n2)c(OC)cc1N(C)CCN(C)C` [Osimertinib, N-[2-[2-(dimethylamino)ethyl-methylamino]-4-methoxy-5-[[4-(1-methylindol-3-yl)pyrimidin-2-yl]amino]phenyl]prop-2-enamide] the Effect (Table 1, marked (ongoing)) was “promotes” and the Effect (Table 2, marked (ongoing)) was “promotes”.

`CN(c1ncccc1CNc1nc(Nc2ccc3c(c2)CC(=O)N3)ncc1C(F)(F)F)S(C)(=O)=O` [PF-562271, N-methyl-N-[3-[[[2-[(2-oxo-1,3-dihydroindol-5-yl)amino]-5-(trifluoromethyl)pyrimidin-4-yl]amino]methyl]pyridin-2-yl]methanesulfonamide] was tested, and the Effect (Table 1, marked (ongoing)) was “promotes” and the Effect (Table 2, marked (ongoing)) was “promotes”.

`C=CCN(/C=C1/C(=O)O[C@H](COC)[C@@]2(C)C1=C(O)C(=O)C1=C2[C@H](OC(C)=O)C[C@]2(C)C(=O)CC[C@@H]12)CC=C` [PX-866] was tested, and the Effect (Table 1, marked (ongoing)) was “promotes” and the Effect (Table 2, marked (ongoing)) was “promotes”.

With `CCOc1cc2ncc(C#N)c(Nc3ccc(F)c(Cl)c3)c2cc1NC(=O)/C=C/CN(C)C` [Pelitinib, (E)-N-[4-(3-chloro-4-fluoroanilino)-3-cyano-7-ethoxyquinolin-6-yl]-4-(dimethylamino)but-2-enamide] the Effect (Table 1, marked (ongoing)) was “promotes” and the Effect (Table 2, marked (ongoing)) was “promotes”.

`CC(=O)CCCCn1c(=O)c2c(ncn2C)n(C)c1=O` [Pentoxifylline, 3,7-dimethyl-1-(5-oxohexyl)purine-2,6-dione] was tested, and the Effect (Table 1, marked (ongoing)) was “promotes” and the Effect (Table 2, marked (ongoing)) was “promotes”.

`COc1cc([C@@H]2c3cc4c(cc3[C@H](O)[C@H]3COC(=O)[C@@H]23)OCO4)cc(OC)c1OC` [Picropodophyllin, (5R,5aR,8aS,9R)-5-hydroxy-9-(3,4,5-trimethoxyphenyl)-5a,6,8a,9-tetrahydro-5H-[2]benzofuro[5,6-f][1,3]benzodioxol-8-one] was tested, and the Effect (Table 1, marked (ongoing)) was “promotes” and the Effect (Table 2, marked (ongoing)) was “promotes”.

For `CS(=O)(=O)N1CCN(Cc2cc3nc(-c4cccc5[nH]ncc45)nc(N4CCOCC4)c3s2)CC1` [Pictilisib, 2-(1H-indazol-4-yl)-6-(4-methanesulfonylpiperazin-1-ylmethyl)-4-morpholin-4-ylthieno(3,2-d)pyrimidine], the Effect (Table 1, marked (ongoing)) was “promotes” and the Effect (Table 2, marked (ongoing)) was “promotes”.

With `Cc1cn(-c2cc(NC(=O)c3ccc(C)c(Nc4nccc(-c5cccnc5)n4)c3)cc(C(F)(F)F)c2)cn1` [Pirotinib, 4-methyl-N-[3-(4-methylimidazol-1-yl)-5-(trifluoromethyl)phenyl]-3-[(4-pyridin-3-ylpyrimidin-2-yl)amino]benzamide] the Effect (Table 1, marked (ongoing)) was “promotes” and the Effect (Table 2, marked (ongoing)) was “promotes”.

With `C=CC(=O)N1CCC(Oc2cc3c(Nc4ccc(Cl)c(Cl)c4F)ncnc3cc2OC)CC1` [Poziotinib, 1-[4-[4-(3,4-dichloro-2-fluoroanilino)-7-methoxyquinazolin-6-yl]oxypiperidin-1-yl]prop-2-en-1-one] the Effect (Table 1, marked (ongoing)) was “promotes” and the Effect (Table 2, marked (ongoing)) was “promotes”.

In the case of `CCOc1cc(C(C)(C)C)ccc1C1=N[C@@](C)(c2ccc(Cl)cc2)[C@@](C)(c2ccc(Cl)cc2)N1C(=O)N1CCN(CCCS(C)(=O)=O)CC1` [RO5045337, [(4S,5R)-2-(4-tert-butyl-2-ethoxyphenyl)-4,5-bis(4-chlorophenyl)-4,5-dimethylimidazol-1-yl]-[4-(3-methylsulfonylpropyl)piperazin-1-yl]methanone], the Effect (Table 1, marked (ongoing)) was “promotes” and the Effect (Table 2, marked (ongoing)) was “promotes”.

In the case of `C[C@H]1Cc2ccccc2N1C(=O)Cc1nc(N2CCOCC2)cc(=O)[nH]1` [SAR260301, (S)-2-(2-(2-Methylindolin-1-yl)-2-oxoethyl)-6-morpholinopyrimidin-4(3H)-one], the Effect (Table 1, marked (ongoing)) was “promotes” and the Effect (Table 2, marked (ongoing)) was “promotes”.

In the case of `c1ccc2c(CCNc3ccc(Nc4ccncc4)cc3)c[nH]c2c1` [Serdemetan, 1-N-[2-(1H-indol-3-yl)ethyl]-4-N-pyridin-4-ylbenzene-1,4-diamine], the Effect (Table 1, marked (ongoing)) was “promotes” and the Effect (Table 2, marked (ongoing)) was “promotes”.

`CO[C@H]1C[C@@H]2CC[C@@H](C)[C@@](O)(O2)C(=O)C(=O)N2CCCC[C@H]2C(=O)O[C@H]([C@H](C)C[C@@H]2CC[C@@H](OC(=O)C(C)(CO)CO)[C@H](OC)C2)CC(=O)[C@H](C)/C=C(\C)[C@@H](O)[C@@H](OC)C(=O)[C@H](C)C[C@H](C)/C=C/C=C/C=C/1C` [Temsirolimus] was tested, and the “effect on primordial-to-primary follicle transition / primordial follicle activation” value was “decrease the rate of primordial-to-primary transition”.

`Cn1c(=O)c2[nH]cnc2n(C)c1=O` [Theophylline, 1,3-dimethyl-7H-purine-2,6-dione] was tested, and the Effect (Table 1, marked (ongoing)) was “promotes” and the Effect (Table 2, marked (ongoing)) was “promotes”.

In the case of `CCCCNC(=O)NS(=O)(=O)c1ccc(C)cc1` [Tolbutamide, 1-butyl-3-(4-methylphenyl)sulfonylurea], the Effect (Table 1, marked (ongoing)) was “promotes” and the Effect (Table 2, marked (ongoing)) was “promotes”.

With `C[n+]1cccc(C(=O)[O-])c1` [Trigonellin hydrochloride] the “decrease in the average numbers of primordial follicles compared to the control” value [3] was ~20% and the “increase compared to the control (follicle stage not given)” value [3] was ~74%.

`COc1ccc(Cl)c(Nc2nc3ccccc3nc2NS(=O)(=O)c2cccc(NC(=O)C(C)(C)N)c2)c1` [XI147, 2-amino-N-[3-({3-[(2-chloro-5-methoxyphenyl)amino]quinoxalin-2-yl}sulfamoyl)phenyl]-2-m] was tested, and the Effect (Table 1, marked (ongoing)) was “promotes” and the Effect (Table 2, marked (ongoing)) was “promotes”.
